Results as given in ChEMBL document CHEMBL5625252, “Synthesis of peptidomimetics as antibiotic adjuvants for combination with aztreonam to combat MDR Pseudomonas aeruginosa” (Eur J Med Chem, 2023).
Values after ≈ are worked out from the molar mass of the structure shown.

How the values were obtained:
Format in all cases: functional
[1] = test system: Klebsiella pneumoniae; test: Antibacterial activity against NDM-1 (+) Klebsiella pneumoniae 09-20 assessed as inhibition of bacterial growth incubated for 18 hrs by agar dilution method
[2] = test system: Escherichia coli; test: Antibacterial activity against NDM-1 (+) Escherichia coli CDC 1001728 assessed as inhibition of bacterial growth incubated for 18 hrs by agar dilution method
[3] = test system: Escherichia coli; test: Antibacterial activity against mcr-1 (+) Escherichia coli 08-85 assessed as inhibition of bacterial growth incubated for 18 hrs by agar dilution method
[4] = test system: Pseudomonas aeruginosa; test: Antibacterial activity against BL (+) Pseudomonas aeruginosa ATCC 27853 assessed as inhibition of bacterial growth incubated for 18 hrs by agar dilution method
[5] = test system: Escherichia coli; test: Antibacterial activity against ESBLs (+) Escherichia coli 16-1 assessed as inhibition of bacterial growth incubated for 18 hrs by agar dilution method
[6] = test system: Klebsiella pneumoniae; test: Antibacterial activity against ESBLs (+) Klebsiella pneumoniae ATCC 700603 assessed as inhibition of bacterial growth incubated for 18 hrs by agar dilution method
[7] = test system: Klebsiella pneumoniae; test: Antibacterial activity against NDM-1 (+) Klebsiella pneumoniae 2146 assessed as inhibition of bacterial growth incubated for 18 hrs by agar dilution method
[8] = test system: Klebsiella pneumoniae; test: Antibacterial activity against ESBLs (+) Klebsiella pneumoniae 16-14 assessed as inhibition of bacterial growth incubated for 18 hrs by agar dilution method
[9] = test system: Escherichia coli; test: Antibacterial activity against ESBLs (-) Escherichia coli ATCC 25922 assessed as inhibition of bacterial growth incubated for 18 hrs by agar dilution method
[10] = test system: Pseudomonas aeruginosa; test: Antibacterial activity against Pseudomonas aeruginosa PAO1 assessed as inhibition of bacterial growth incubated for 18 hrs by agar dilution method
[11] = test system: Pseudomonas aeruginosa; test: Antibacterial activity against Pseudomonas aeruginosa 13-17 assessed as inhibition of bacterial growth incubated for 18 hrs by agar dilution method
[12] = test system: Pseudomonas aeruginosa; test: Antibacterial activity against Pseudomonas aeruginosa 23-Y417 assessed as inhibition of bacterial growth incubated for 18 hrs by agar dilution method; details: read-out: MIC
[13] = test system: Pseudomonas aeruginosa; test: Antibacterial activity against Pseudomonas aeruginosa 13-3 assessed as inhibition of bacterial growth incubated for 18 hrs by agar dilution method
[14] = test system: Pseudomonas aeruginosa; test: Antibacterial activity against Pseudomonas aeruginosa 23-Y364 assessed as inhibition of bacterial growth incubated for 18 hrs by agar dilution method
[15] = test system: Pseudomonas aeruginosa; test: Antibacterial activity against Pseudomonas aeruginosa 19-55 assessed as inhibition of bacterial growth incubated for 18 hrs by agar dilution method
[16] = test system: Pseudomonas aeruginosa; test: Antibacterial activity against Pseudomonas aeruginosa 16-11 assessed as inhibition of bacterial growth incubated for 18 hrs by agar dilution method
[17] = test system: Pseudomonas aeruginosa; test: Antibacterial activity against Pseudomonas aeruginosa 21-7 assessed as inhibition of bacterial growth incubated for 18 hrs by agar dilution method
[18] = test system: Pseudomonas aeruginosa; test: Antibacterial activity against Pseudomonas aeruginosa 23-Y539 assessed as inhibition of bacterial growth incubated for 18 hrs by agar dilution method
[19] = test system: Pseudomonas aeruginosa; test: Antibacterial activity against Pseudomonas aeruginosa 13-35 assessed as inhibition of bacterial growth incubated for 18 hrs by agar dilution method
[20] = test system: Pseudomonas aeruginosa; test: Antibacterial activity against Pseudomonas aeruginosa 21-2 assessed as inhibition of bacterial growth incubated for 18 hrs by agar dilution method
[21] = test system: Pseudomonas aeruginosa; test: Antibacterial activity against Pseudomonas aeruginosa 23-Y511 assessed as inhibition of bacterial growth incubated for 18 hrs by agar dilution method
[22] = test system: Pseudomonas aeruginosa; test: Antibacterial activity against Pseudomonas aeruginosa 23-Y122 assessed as inhibition of bacterial growth incubated for 18 hrs by agar dilution method
[23] = test system: Pseudomonas aeruginosa; test: Antibacterial activity against Pseudomonas aeruginosa 19-46 assessed as inhibition of bacterial growth incubated for 18 hrs by agar dilution method
[24] = test system: Pseudomonas aeruginosa; test: Antibacterial activity against Pseudomonas aeruginosa 12-1 assessed as inhibition of bacterial growth incubated for 18 hrs by agar dilution method
[25] = test system: Pseudomonas aeruginosa; test: Antibacterial activity against Pseudomonas aeruginosa 16-2 assessed as inhibition of bacterial growth incubated for 18 hrs by agar dilution method
[26] = test system: Pseudomonas aeruginosa; test: Antibacterial activity against Pseudomonas aeruginosa 21-8 assessed as inhibition of bacterial growth incubated for 18 hrs by agar dilution method
[27] = test system: Pseudomonas aeruginosa; test: Antibacterial activity against Pseudomonas aeruginosa 23-Y372 assessed as inhibition of bacterial growth incubated for 18 hrs by agar dilution method
[28] = test system: Pseudomonas aeruginosa; test: Synergistic antibacterial activity against Pseudomonas aeruginosa PAO1 assessed as aztreonam MIC upto […] ug/ml incubated for 18 hrs by checkerboard method (reference value: 8 microg/ml)

SMILES | MIC [1] | MIC [2] | MIC [3] | MIC [4] | MIC [5] | MIC [6] | MIC [7] | MIC [8] | MIC [9] | MIC [10] | MIC [28] | also measured
C[C@H]1[C@H](NC(=O)/C(=N\OC(C)(C)C(=O)N2CCC[C@@H]2C(=O)O)c2csc(N)n2)C(=O)N1S(=O)(=O)O | 16 µg/mL (≈ 30 µM) | 64 µg/mL (≈ 120 µM) | > 64 µg/mL | 32 µg/mL (≈ 60.1 µM) | 1 µg/mL (≈ 1.88 µM) | > 64 µg/mL | > 64 µg/mL | > 64 µg/mL | 2 µg/mL (≈ 3.76 µM) | 8 µg/mL (≈ 15 µM) |  | 
C[C@H]1[C@H](NC(=O)/C(=N\OCC(=O)N2C3CCCC3C[C@@H]2C(=O)O)c2csc(N)n2)C(=O)N1S(=O)(=O)O (some centres undefined) | 8 µg/mL (≈ 14.7 µM) | 16 µg/mL (≈ 29.4 µM) | > 64 µg/mL | > 64 µg/mL | 1 µg/mL (≈ 1.84 µM) | > 64 µg/mL | > 64 µg/mL | 64 µg/mL (≈ 118 µM) | 1 µg/mL (≈ 1.84 µM) | > 64 µg/mL |  | 
CC(C)(O/N=C(\C(=O)N[C@@H]1C(=O)N2C(C(=O)[O-])=C(C[n+]3ccccc3)CS[C@H]12)c1csc(N)n1)C(=O)O [CEFTAZIDIME] |  |  |  |  |  |  |  |  |  | 2 µg/mL (≈ 3.66 µM) |  | MIC [11]: 64 µg/mL (≈ 117 µM); MIC [12]: 4 µg/mL (≈ 7.32 µM); MIC [13]: 64 µg/mL (≈ 117 µM); MIC [14]: 64 µg/mL (≈ 117 µM); MIC [15]: 128 µg/mL (≈ 234 µM); MIC [16]: > 256 µg/mL; MIC [17]: > 256 µg/mL; MIC [18]: 32 µg/mL (≈ 58.5 µM); MIC [19]: 16 µg/mL (≈ 29.3 µM); MIC [20]: 64 µg/mL (≈ 117 µM); MIC [21]: 1 µg/mL (≈ 1.83 µM); MIC [22]: 256 µg/mL (≈ 468 µM); MIC [23]: 128 µg/mL (≈ 234 µM); MIC [24]: 64 µg/mL (≈ 117 µM); MIC [25]: 128 µg/mL (≈ 234 µM); MIC [26]: 1 µg/mL (≈ 1.83 µM); MIC [27]: > 256 µg/mL
COc1ccc(CCC(=O)N[C@@H](CCCN)C(=O)Nc2ccc3ccccc3c2)cc1 |  |  |  |  |  |  |  |  |  |  | 8 µg/mL | 
C[C@H]1[C@H](NC(=O)/C(=N\OCC(=O)N2CCCC(C(=O)O)C2)c2csc(N)n2)C(=O)N1S(=O)(=O)O (some centres undefined) | 64 µg/mL (≈ 123 µM) | 16 µg/mL (≈ 30.9 µM) | > 64 µg/mL | > 64 µg/mL | 2 µg/mL (≈ 3.86 µM) | > 64 µg/mL | > 64 µg/mL | > 64 µg/mL | 0.5 µg/mL (≈ 0.964 µM) | > 64 µg/mL |  | 
C[C@H]1COc2c(N3CCN(C)CC3)c(F)cc3c(=O)c(C(=O)O)cn1c23 [LEVOFLOXACIN ANHYDROUS] | 16 µg/mL (≈ 44.3 µM) | 8 µg/mL (≈ 22.1 µM) | 16 µg/mL (≈ 44.3 µM) |  |  |  | 128 µg/mL (≈ 354 µM) |  | ≤ 0.03 µg/mL |  |  | 
C[C@@H](O/N=C(\C(=O)N[C@@H]1C(=O)N(OS(=O)(=O)O)C1(C)C)c1csc(N)n1)C(=O)O | 1 µg/mL (≈ 2.22 µM) |  | 1 µg/mL (≈ 2.22 µM) | 64 µg/mL (≈ 142 µM) | 0.5 µg/mL (≈ 1.11 µM) | 4 µg/mL (≈ 8.86 µM) | 8 µg/mL (≈ 17.7 µM) | 0.5 µg/mL (≈ 1.11 µM) | 1 µg/mL (≈ 2.22 µM) | 64 µg/mL (≈ 142 µM) |  | 
C[C@H]1[C@H](NC(=O)/C(=N\OCCN)c2nsc(N)n2)C(=O)N1S(=O)(=O)O | 64 µg/mL (≈ 163 µM) | 16 µg/mL (≈ 40.7 µM) | > 64 µg/mL | > 64 µg/mL | 16 µg/mL (≈ 40.7 µM) | 32 µg/mL (≈ 81.3 µM) | 32 µg/mL (≈ 81.3 µM) | > 64 µg/mL | 32 µg/mL (≈ 81.3 µM) | > 64 µg/mL |  | 
C[C@H]1[C@H](NC(=O)/C(=N\OCC(=O)N2CCC[C@@H]2C(=O)O)c2nsc(N)n2)C(=O)N1S(=O)(=O)O | 16 µg/mL (≈ 31.7 µM) | 8 µg/mL (≈ 15.8 µM) | > 64 µg/mL | > 64 µg/mL | 1 µg/mL (≈ 1.98 µM) | > 64 µg/mL | > 64 µg/mL | > 64 µg/mL | 1 µg/mL (≈ 1.98 µM) | > 64 µg/mL |  | 
C[C@H]1[C@H](NC(=O)/C(=N\OCC(=O)N2CCC(C(=O)O)C2)c2csc(N)n2)C(=O)N1S(=O)(=O)O (some centres undefined) | 32 µg/mL (≈ 63.4 µM) | 16 µg/mL (≈ 31.7 µM) | > 64 µg/mL | > 64 µg/mL | 2 µg/mL (≈ 3.96 µM) | > 64 µg/mL | > 64 µg/mL | > 64 µg/mL | 1 µg/mL (≈ 1.98 µM) | > 64 µg/mL |  | 

More lines, main results first:

MIC [1] | MIC [2] | MIC [3] | MIC [4] | MIC [5] | MIC [6] | MIC [7] | MIC [8] | MIC [9] | MIC [10] | MIC [28] | SMILES | also measured
 |  |  |  |  |  |  |  |  |  | 8 µg/mL | NCCC[C@H](NC(=O)CCCc1ccccc1)C(=O)Nc1ccc2ccccc2c1 | 
 |  |  |  |  |  |  |  |  |  | 2 µg/mL | NCCC[C@H](NC(=O)CCc1ccccc1)C(=O)Nc1ccc2ccccc2c1 | 
 |  |  |  |  |  |  |  |  |  | 8 µg/mL | NCCC[C@H](NC(=O)C[C@H](N)c1ccccc1)C(=O)Nc1ccc2ccccc2c1 | 
 |  |  |  |  |  |  |  |  |  | 8 µg/mL | NCCC[C@H](NC(=O)c1ccc2ccccc2c1)C(=O)N[C@@H](Cc1ccccc1)C(N)=O | 
 |  |  |  |  |  |  |  |  |  | 8 µg/mL | NCCC[C@H](NCc1ccc2ccccc2c1)C(=O)N[C@@H](CCc1ccccc1)C(=O)O | 
 |  |  |  |  |  |  |  |  |  | 8 µg/mL | NCCC[C@H](NC(=O)CCc1ccc(Cl)cc1)C(=O)Nc1ccc2ccccc2c1 | 
